Here are results for 10 molecules from publication PMC9927415, “Tyrosine Kinase Inhibitors Display Potent Activity against Cryptosporidium parvum” (Microbiology Spectrum, 2022).

Structures are written as SMILES.

What all share (test): KINOMEscan competitive binding, whole panel
In experiment [1] the target is T1, panel of 203 kinases (Homo sapiens, UniProt P45984).
T1 construct: purchased DiscoverX (KINOMEscan)
As to conditions: 10 µM, n=1; kinase JNK2; read-out: Percent inhibition JNK2. From the text:
(§1) The kinases were expressed as fusions to T7 bacteriophage. This is a sensitive, competitive binding assay where test compounds were used to displace immobilized ATP-site binding probe ligands from kinases of interest. The amount of kinase that remained bound to the immobilized probe ligands on the solid support was quantified. Percentage inhibition data were was plotted on kinome trees using the web-based tool KinMap (http://www.kinhub.org/kinmap) ([60]).

Experiment [2] concerns the target T2, panel of 203 kinases (Homo sapiens, UniProt Q9Y6E0).
T2 construct: purchased DiscoverX (KINOMEscan)
Particulars: 10 µM, n=1; kinase MST3; read-out: Percent inhibition MST3.
Excerpt: as §1

For experiment [3], the target named is T3, panel of 203 kinases (Homo sapiens, UniProt P53671).
T3 construct: purchased DiscoverX (KINOMEscan)
As to conditions: 10 µM, n=1; kinase LIMK2; read-out: Percent inhibition LIMK2.
Excerpt: as §1

Experiment [4] deals with T4, panel of 203 kinases (Homo sapiens, UniProt P53667).
T4 construct: purchased DiscoverX (KINOMEscan)
As to conditions: 10 µM, n=1; kinase LIMK1; read-out: Percent inhibition LIMK1.
Excerpt: as §1

For experiment [5], the target named is T5, panel of 203 kinases (Homo sapiens, UniProt Q08881).
T5 construct: purchased DiscoverX (KINOMEscan)
T5 sequence (Q08881 1-620): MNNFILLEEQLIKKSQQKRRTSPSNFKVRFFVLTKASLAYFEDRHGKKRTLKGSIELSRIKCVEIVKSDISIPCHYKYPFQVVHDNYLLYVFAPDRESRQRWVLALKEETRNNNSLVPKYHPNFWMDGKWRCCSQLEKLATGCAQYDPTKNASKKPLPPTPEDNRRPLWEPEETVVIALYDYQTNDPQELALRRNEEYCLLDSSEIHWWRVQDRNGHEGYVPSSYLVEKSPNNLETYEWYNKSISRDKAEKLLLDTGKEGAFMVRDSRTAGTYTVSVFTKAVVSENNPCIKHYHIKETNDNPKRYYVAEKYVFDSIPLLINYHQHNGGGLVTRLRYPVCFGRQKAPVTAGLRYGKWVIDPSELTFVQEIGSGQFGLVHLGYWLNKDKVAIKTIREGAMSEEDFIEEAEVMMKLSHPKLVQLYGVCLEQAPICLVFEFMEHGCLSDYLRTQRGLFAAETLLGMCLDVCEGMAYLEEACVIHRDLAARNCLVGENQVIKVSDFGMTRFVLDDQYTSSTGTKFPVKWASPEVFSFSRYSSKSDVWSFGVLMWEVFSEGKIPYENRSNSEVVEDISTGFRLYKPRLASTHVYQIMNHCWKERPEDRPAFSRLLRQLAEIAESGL
As to conditions: 10 µM, n=1; kinase ITK; read-out: Percent inhibition ITK.
Excerpt: as §1

In experiment [6] the target is T6, panel of 203 kinases (Homo sapiens, UniProt P08631).
T6 construct: purchased DiscoverX (KINOMEscan)
As to conditions: 10 µM, n=1; kinase HCK; read-out: Percent inhibition HCK.
Excerpt: as §1

Experiment [7] has as its target T7, panel of 203 kinases (Homo sapiens, UniProt Q8IWQ3).
T7 construct: purchased DiscoverX (KINOMEscan)
T7 sequence (Q8IWQ3 1-736): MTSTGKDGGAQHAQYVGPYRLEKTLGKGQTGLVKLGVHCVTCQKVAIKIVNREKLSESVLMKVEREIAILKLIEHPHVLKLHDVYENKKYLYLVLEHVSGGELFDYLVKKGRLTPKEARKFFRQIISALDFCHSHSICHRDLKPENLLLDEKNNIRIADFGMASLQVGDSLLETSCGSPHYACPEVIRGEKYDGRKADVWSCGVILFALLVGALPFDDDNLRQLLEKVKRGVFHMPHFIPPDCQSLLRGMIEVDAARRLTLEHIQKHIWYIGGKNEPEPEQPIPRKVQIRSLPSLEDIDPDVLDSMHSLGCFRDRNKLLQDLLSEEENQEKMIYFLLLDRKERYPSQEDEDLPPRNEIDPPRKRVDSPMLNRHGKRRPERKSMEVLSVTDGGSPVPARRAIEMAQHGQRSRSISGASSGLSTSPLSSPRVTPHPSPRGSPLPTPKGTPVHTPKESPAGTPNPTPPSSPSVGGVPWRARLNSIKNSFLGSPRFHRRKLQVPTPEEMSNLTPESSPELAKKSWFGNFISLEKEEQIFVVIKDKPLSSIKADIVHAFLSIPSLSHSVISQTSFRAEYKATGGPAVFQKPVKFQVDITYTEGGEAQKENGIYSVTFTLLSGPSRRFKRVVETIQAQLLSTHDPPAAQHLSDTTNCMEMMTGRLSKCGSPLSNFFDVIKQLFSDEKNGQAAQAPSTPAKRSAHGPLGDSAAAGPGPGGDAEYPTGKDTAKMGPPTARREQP
As to conditions: 10 µM, n=1; kinase BRSK2; read-out: Percent inhibition BRSK2.
Excerpt: as §1

Experiment [8] deals with T8, panel of 203 kinases (Homo sapiens, UniProt P54762).
T8 construct: purchased DiscoverX (KINOMEscan)
T8 sequence (P54762 18-984): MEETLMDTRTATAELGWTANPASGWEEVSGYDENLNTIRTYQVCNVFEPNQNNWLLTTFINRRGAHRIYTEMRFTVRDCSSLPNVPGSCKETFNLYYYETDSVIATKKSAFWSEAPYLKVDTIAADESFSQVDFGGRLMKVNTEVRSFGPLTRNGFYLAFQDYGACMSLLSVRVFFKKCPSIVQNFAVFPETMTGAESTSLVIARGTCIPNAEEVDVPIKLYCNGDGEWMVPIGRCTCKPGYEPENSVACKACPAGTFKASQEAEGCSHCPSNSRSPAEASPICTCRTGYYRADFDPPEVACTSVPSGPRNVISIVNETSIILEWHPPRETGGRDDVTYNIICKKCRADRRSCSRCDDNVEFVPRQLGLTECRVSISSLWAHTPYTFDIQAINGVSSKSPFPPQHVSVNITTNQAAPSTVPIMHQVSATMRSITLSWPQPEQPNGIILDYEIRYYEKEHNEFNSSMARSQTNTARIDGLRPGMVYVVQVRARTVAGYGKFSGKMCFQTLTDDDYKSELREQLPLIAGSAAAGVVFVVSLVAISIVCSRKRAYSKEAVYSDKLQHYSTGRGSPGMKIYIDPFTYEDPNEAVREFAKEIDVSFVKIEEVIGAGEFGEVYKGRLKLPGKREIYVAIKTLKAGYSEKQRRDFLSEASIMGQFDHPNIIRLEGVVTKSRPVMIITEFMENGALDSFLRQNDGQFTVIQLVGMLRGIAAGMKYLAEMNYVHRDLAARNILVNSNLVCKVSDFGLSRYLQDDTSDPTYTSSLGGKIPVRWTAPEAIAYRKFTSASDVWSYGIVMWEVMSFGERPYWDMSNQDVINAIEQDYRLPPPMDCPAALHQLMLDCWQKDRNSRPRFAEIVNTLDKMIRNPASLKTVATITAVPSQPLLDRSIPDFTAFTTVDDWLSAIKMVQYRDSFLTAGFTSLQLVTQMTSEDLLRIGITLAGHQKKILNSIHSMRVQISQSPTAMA
Particulars: 10 µM, n=1; kinase EPHB1; read-out: Percent inhibition EPHB1.
Excerpt: as §1

T1 sequence (P45984 whole entry): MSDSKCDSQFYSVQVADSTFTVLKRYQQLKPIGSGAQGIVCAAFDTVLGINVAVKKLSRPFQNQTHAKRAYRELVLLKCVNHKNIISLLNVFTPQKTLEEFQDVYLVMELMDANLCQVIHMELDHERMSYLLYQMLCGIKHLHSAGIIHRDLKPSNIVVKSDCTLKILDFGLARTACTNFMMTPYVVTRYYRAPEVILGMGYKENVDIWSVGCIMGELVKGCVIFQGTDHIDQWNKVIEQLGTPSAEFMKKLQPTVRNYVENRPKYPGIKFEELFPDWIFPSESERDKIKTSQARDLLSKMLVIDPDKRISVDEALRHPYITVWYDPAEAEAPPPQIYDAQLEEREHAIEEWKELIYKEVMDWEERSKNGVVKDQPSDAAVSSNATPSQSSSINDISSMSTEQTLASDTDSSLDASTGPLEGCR
T6 sequence (P08631 whole entry): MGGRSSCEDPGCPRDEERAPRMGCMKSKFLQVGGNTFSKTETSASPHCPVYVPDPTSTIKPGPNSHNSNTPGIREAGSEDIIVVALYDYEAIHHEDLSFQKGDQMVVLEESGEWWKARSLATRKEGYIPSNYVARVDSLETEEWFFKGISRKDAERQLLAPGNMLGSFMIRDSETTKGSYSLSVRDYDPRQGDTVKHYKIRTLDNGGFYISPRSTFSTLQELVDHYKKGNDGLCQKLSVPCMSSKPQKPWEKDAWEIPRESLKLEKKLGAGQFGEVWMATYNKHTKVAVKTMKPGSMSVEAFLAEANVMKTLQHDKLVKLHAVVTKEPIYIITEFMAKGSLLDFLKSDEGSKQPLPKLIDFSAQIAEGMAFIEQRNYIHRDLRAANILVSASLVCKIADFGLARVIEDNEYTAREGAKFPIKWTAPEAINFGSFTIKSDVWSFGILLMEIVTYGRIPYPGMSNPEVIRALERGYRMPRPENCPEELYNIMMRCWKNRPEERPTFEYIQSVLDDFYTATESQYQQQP
T4 sequence (P53667 whole entry): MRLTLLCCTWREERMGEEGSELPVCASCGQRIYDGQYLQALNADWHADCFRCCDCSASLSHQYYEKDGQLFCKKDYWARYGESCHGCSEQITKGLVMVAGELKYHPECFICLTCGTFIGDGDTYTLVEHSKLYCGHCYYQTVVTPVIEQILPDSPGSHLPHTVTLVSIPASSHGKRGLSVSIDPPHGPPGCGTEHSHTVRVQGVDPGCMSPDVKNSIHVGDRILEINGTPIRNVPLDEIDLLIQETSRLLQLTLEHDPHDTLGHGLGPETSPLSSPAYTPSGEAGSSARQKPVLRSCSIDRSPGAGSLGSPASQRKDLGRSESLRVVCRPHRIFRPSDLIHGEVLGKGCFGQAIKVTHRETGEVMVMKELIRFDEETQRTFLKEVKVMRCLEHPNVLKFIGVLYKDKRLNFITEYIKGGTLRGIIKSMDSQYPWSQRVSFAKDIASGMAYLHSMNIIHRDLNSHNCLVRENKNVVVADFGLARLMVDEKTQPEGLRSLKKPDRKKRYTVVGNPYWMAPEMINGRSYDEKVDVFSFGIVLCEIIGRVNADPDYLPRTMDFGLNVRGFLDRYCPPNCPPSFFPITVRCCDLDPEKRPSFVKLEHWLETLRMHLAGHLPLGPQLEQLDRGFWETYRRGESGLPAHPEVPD
T2 sequence (Q9Y6E0 whole entry): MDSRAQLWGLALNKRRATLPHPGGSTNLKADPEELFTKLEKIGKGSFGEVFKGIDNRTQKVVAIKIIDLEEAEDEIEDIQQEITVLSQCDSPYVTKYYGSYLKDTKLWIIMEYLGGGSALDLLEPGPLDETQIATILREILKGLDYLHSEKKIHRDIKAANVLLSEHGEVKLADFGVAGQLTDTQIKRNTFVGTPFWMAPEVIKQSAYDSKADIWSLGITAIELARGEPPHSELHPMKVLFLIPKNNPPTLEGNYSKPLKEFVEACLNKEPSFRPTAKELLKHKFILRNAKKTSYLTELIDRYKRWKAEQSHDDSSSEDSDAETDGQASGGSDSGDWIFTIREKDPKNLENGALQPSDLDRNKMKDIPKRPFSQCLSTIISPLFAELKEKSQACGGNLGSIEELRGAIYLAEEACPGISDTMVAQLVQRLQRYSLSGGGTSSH
T3 sequence (P53671 whole entry): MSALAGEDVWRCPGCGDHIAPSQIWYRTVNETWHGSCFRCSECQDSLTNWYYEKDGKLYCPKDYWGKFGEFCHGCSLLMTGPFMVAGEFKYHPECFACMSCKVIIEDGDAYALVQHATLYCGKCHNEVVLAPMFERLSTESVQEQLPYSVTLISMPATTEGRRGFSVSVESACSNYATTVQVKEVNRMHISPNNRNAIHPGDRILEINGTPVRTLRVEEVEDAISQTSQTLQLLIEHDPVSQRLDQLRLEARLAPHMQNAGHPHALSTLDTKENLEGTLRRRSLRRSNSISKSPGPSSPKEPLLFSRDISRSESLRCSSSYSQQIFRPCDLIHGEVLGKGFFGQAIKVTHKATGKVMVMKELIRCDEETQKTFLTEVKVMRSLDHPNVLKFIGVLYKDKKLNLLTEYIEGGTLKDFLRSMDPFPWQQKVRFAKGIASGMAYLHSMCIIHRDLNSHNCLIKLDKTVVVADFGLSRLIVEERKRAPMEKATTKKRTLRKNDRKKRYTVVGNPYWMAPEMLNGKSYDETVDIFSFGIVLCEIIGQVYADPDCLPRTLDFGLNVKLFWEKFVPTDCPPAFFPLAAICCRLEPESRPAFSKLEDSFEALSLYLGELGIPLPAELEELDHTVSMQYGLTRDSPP

The inhibition is the percentage by which the read-out fell short of the control. Take `CN1CCN(c2ccc(Nc3nccc(-c4cnn5ncccc45)n3)cc2C#N)CC1` [Compound 1]: the inhibition at 10 µM at panel of 203 kinases [1] was 96.5%; at panel of 203 kinases [2] it was 99.4%; at panel of 203 kinases [3], 100%; at panel of 203 kinases [4] it was 85.9%; at panel of 203 kinases [5] it was 79%; on panel of 203 kinases [6], 0%. Also, the inhibition at 10 µM on panel of 203 kinases [7] came out at 0%; at panel of 203 kinases [8], 99.3%.

As for `COc1ccc(Nc2nccc(-c3cnn4ncccc34)n2)cc1` [Compound 2], the inhibition at 10 µM on panel of 203 kinases [1] came out at 99.1%; on panel of 203 kinases [2] it was 72%; on panel of 203 kinases [3], 88%; at panel of 203 kinases [4] it was 90.5%; at panel of 203 kinases [5], 0%; on panel of 203 kinases [6] it was 0%. Further, the results for the inhibition at 10 µM on panel of 203 kinases [7] and on panel of 203 kinases [8] were 0% and 99.8%, respectively.

Take `Cc1ccc(O)cc1Nc1ccnc(Nc2cccc(C(N)=O)c2)n1` [Compound 3]: the inhibition at 10 µM worked out at 0% on panel of 203 kinases [1]; 0% on panel of 203 kinases [2]; 96.6% at panel of 203 kinases [3]; 86.4% at panel of 203 kinases [4]; 0% at panel of 203 kinases [5]; 99.8% at panel of 203 kinases [6]. The values for the inhibition at 10 µM on panel of 203 kinases [7] and at panel of 203 kinases [8] were 0% and 100%, respectively.

With `Cc1ccc(O)cc1N(C)c1ccnc(Nc2cccc(S(N)(=O)=O)c2)n1` [Compound 4], the inhibition at 10 µM on panel of 203 kinases [1] amounted to 71.3%; on panel of 203 kinases [2], 0%; at panel of 203 kinases [3], 96%; on panel of 203 kinases [4], 91.9%; at panel of 203 kinases [5], 0%; on panel of 203 kinases [6] it was 99.8%. Also, the inhibition at 10 µM amounted to 0% at panel of 203 kinases [7] and 100% on panel of 203 kinases [8].

Regarding `Fc1cccc(COc2ccc(Nc3ncnc4c3CN(CCN3CCOCC3)CC4)cc2Cl)c1` [Compound 6], the inhibition at 10 µM on panel of 203 kinases [1], at panel of 203 kinases [2], on panel of 203 kinases [3], on panel of 203 kinases [4], at panel of 203 kinases [5] and on panel of 203 kinases [6] was 0% throughout. Further, the inhibition at 10 µM on panel of 203 kinases [7] and at panel of 203 kinases [8] was 0% throughout.

On to `COc1cc(Nc2nccc(-c3sc(N)nc3-c3cccc(NC(=O)c4c(F)cccc4F)c3)n2)cc(OC)c1OC` [Compound 7], for which the inhibition at 10 µM is 99% on panel of 203 kinases [1]; 93.8% at panel of 203 kinases [2]; 100% on panel of 203 kinases [3]; 100% on panel of 203 kinases [4]; 0% on panel of 203 kinases [5]; 99.7% at panel of 203 kinases [6]. Further, the inhibition at 10 µM at panel of 203 kinases [7] amounted to 0%; on panel of 203 kinases [8], 100%.

Consider `C[C@@H](Oc1cc(-c2cnc3ccccn23)sc1C(N)=O)c1ccccc1Cl` [Compound 8], for which the inhibition at 10 µM on panel of 203 kinases [1], at panel of 203 kinases [2], at panel of 203 kinases [3], on panel of 203 kinases [4], at panel of 203 kinases [5] and on panel of 203 kinases [6] was 0% throughout. The figures for the inhibition at 10 µM on panel of 203 kinases [7] and at panel of 203 kinases [8] were 91.2% and 0%, respectively.

Take `c1ccc(COc2cccc(-c3ccnc4[nH]ccc34)c2)cc1` [Compound 9]: the inhibition at 10 µM at panel of 203 kinases [1], at panel of 203 kinases [2], on panel of 203 kinases [3], at panel of 203 kinases [4], on panel of 203 kinases [5] and on panel of 203 kinases [6] was 0% each time. Also, the inhibition at 10 µM at panel of 203 kinases [7] and at panel of 203 kinases [8] was 0% throughout.

Consider `Clc1ccc(Nc2ncc(-c3ccccc3)s2)cc1` [Compound 10], for which the inhibition at 10 µM on panel of 203 kinases [1], on panel of 203 kinases [2], at panel of 203 kinases [3], at panel of 203 kinases [4], on panel of 203 kinases [5] and on panel of 203 kinases [6] was 0% each time. In addition, the inhibition at 10 µM at panel of 203 kinases [7] and at panel of 203 kinases [8] was 0% each time.

In the case of `Nc1ncc2c(-c3ccncc3)c[nH]c2n1` [Compound 11], the inhibition at 10 µM at panel of 203 kinases [1] was 0%; at panel of 203 kinases [2], 68.2%; at panel of 203 kinases [3], 0%; on panel of 203 kinases [4], 0%; on panel of 203 kinases [5] it was 73.2%; at panel of 203 kinases [6], 66.9%. Moreover, the inhibition at 10 µM at panel of 203 kinases [7] is 0%; on panel of 203 kinases [8], 81.9%.
